The source of these data is patent US11884682B2, “Compounds and their uses as MIF inhibitors” (NANJING IMMUNOPHAGE BIOTECH CO., LTD., priority 2020, dated 2024).

For one assay, the target named is MIF (Homo sapiens (Human), UniProt P14174). The assay is described as follows: MIF tautomerase assay using pHPP as substrate. It is filed as biochemical. Conditions: cell-free, pHPP substrate 1.5 mM, MIF 3 nM; mean pIC50 of multiple test results.
The subject of another assay is BV2 cells. The assay is described as follows: BV2 cell proliferation assay (CCK-8). The format is cell-based. Conditions: Mus musculus, BV-2, 48 h treatment, CCK-8, top concentration 33.3 μM, mean pIC50 of multiple test results, read-out: BV2 Profileration pIC50 (converted). The source says: (§1) The assay measures the ability of a compound to inhibit cell proliferation using Cell Counting Kit-8 (CCK-8), which allows sensitive colorimetric assays for the determination of cell viability in cell proliferation and cytotoxicity assays. The highly water-soluble tetrazolium salt, WST-8, is reduced by dehydrogenase activities in cells to give a yellow-color formazan dye, which is soluble in the tissue culture media. The amount of the formazan dye, generated by the activities of dehydrogenases in cells, is directly proportional to the number of living cells.
(§2) The assay was performed based on the instruction of the manufacturer (Dojindo Molecular Technologies Inc., Rockville, MD, USA). To start the assay, BV2 cells were seeded at a density of […] into 96-well plates and treated with test compounds, which were used at a top final assay concentration of 33.3 μM, diluted in assay medium with 1:3 dilutions to produce 10 point concentration responses, for 48 h. After incubation, the CCK-8 solution (10 μl) was added to each well of the plate and the plates were incubated in incubator at 37° C. for 3 h. Absorbance was recorded three times independently using a microplate reader (Bio-Rad Laboratories, Richmond, CA, USA) at 450 nm.
Selected examples were tested in the BV2 cell proliferation. The data mentioned below represents a mean pIC50 value of multiple test results. It is understood that the data illustrated below may have reasonable variation depending on the specific conditions and procedures used by the person conducting the testing.

In a further assay the test system is U251 cell. The assay is described as follows: U251 cell proliferation assay (CCK-8). It is filed as cell-based. Conditions: Homo sapiens, U-251; U251 cells; read-out: U251 Profileration pIC50 (converted).
Text: [The source words this procedure for another cell line and reports this cell line under the same test.] as §1, §2

Sequence of MIF (P14174 2-115): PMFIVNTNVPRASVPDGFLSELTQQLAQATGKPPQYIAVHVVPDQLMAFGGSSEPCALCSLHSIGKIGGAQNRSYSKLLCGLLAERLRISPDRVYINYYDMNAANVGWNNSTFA

Take `COc1cc(NC2CCN(C)C2)ccc1C(=O)NCc1nnc(-c2cccs2)o1` (stereo not drawn) [Compound 76, 2-methoxy-4-((1-methylpyrrolidin-3-yl)amino)-N-((5-(thiophen-2-yl)-1,3,4-oxadiazol-2-yl)methyl)benzamide]: the “Tautomerase Inhibition pIC50” value on MIF came out at 1.77. In addition, the IC50 with BV2 cells and with U251 cell was over 1000 µM each time.
`CNCCNc1ccc(C(=O)NCc2nnc(-c3cccs3)o2)c(OC)c1` [Compound 77, 2-methoxy-4-((2-(methylamino)ethyl)amino)-N-((5-(thiophen-2-yl)-1,3,4-oxadiazol-2-yl)methyl)benzamide]: the “Tautomerase Inhibition pIC50” value at MIF was 5.66. Further, the IC50 in the assay with BV2 cells and in the assay on U251 cell was over 1000 µM in each case.
As to `COc1cc(OC2CCN(C)C2)ccc1C(=O)NCc1nnc(-c2cccs2)o1` (stereo not drawn) [Compound 82, 2-methoxy-4-((1-methylpyrrolidin-3-yl)oxy)-N-((5-(thiophen-2-yl)-1,3,4-oxadiazol-2-yl)methyl)benzamide], the “Tautomerase Inhibition pIC50” value at MIF is on record as 5.53. For the same molecule, the IC50 with BV2 cells and in the assay on U251 cell was over 1000 µM each time.
Turning to `COc1cc(CC(C)(C)O)ccc1C(=O)NCc1nnc(-c2cccs2)o1` [Compound 84, 4-(2-hydroxy-2-methylpropyl)-2-methoxy-N-((5-(thiophen-2-yl)-1,3,4-oxadiazol-2-yl)methyl)benzamide], on MIF, the “Tautomerase Inhibition pIC50” value is 6.04. The IC50 with BV2 cells is 41.7 µM; in the assay on U251 cell, over 1000 µM.
On to `COc1cc(CN2CCCCC2)ccc1C(=O)NCc1nnc(-c2cccs2)o1` [Compound 85, 2-methoxy-4-(piperidin-1-ylmethyl)-N-((5-(thiophen-2-yl)-1,3,4-oxadiazol-2-yl)methyl)benzamide], for which the “Tautomerase Inhibition pIC50” value at MIF is on record as 5.20. In addition, the IC50 in the assay with BV2 cells and in the assay with U251 cell was over 1000 µM in each case.
Turning to `COc1cc(CN2CCOCC2)ccc1C(=O)NCc1nnc(-c2cccs2)o1` [Compound 86, 2-methoxy-4-(morpholinomethyl)-N-((5-(thiophen-2-yl)-1,3,4-oxadiazol-2-yl)methyl)benzamide], the “Tautomerase Inhibition pIC50” value on MIF was determined as 5.47. Moreover, the IC50 in the assay on BV2 cells and in the assay with U251 cell was over 1000 µM throughout.
